Results reported in patent publication US11414404B2, “Compounds for the treatment of BRAF-associated diseases and disorders” (Array BioPharma Inc., priority 2019, dated 2022).

Assays:
BCRP [1] = conditions: reported in the literature; cited from earlier work
[2] = target: full-length FLAG-tagged B-Raf(V600E) (Homo sapiens (Human), UniProt P15056, V600E); assay: BRAF V600E enzyme assay (TR-FRET competitive displacement of fluorescent tracer); format: binding; conditions: averaged IC50; 60 min at ambient temperature; 11-point dosing, top dose 10 μM
full-length FLAG-tagged B-Raf(V600E), sequence (P15056 whole entry V600E): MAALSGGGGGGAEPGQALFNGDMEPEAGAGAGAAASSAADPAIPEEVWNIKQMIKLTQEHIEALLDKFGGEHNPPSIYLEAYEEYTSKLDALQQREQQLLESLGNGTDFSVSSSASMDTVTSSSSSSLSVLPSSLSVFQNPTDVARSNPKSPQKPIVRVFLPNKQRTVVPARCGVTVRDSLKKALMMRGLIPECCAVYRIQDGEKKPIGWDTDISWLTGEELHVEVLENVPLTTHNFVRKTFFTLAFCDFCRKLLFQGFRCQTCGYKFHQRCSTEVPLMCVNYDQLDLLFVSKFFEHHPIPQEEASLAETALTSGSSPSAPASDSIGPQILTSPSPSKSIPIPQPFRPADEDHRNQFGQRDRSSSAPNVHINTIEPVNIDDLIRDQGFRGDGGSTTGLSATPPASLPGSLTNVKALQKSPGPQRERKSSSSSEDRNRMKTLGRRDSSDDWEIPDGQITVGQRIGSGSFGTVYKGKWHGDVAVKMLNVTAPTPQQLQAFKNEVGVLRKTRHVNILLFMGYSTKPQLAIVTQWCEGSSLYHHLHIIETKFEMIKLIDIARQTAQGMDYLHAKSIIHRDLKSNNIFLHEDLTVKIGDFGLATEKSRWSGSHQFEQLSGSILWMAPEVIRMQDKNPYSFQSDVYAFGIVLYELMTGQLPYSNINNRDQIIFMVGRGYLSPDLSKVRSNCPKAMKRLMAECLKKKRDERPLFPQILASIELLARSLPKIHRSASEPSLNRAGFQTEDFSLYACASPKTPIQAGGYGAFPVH
Text: (§1) A competitive displacement assay was configured for B-Raf that monitors the amount of a fluorescently-tagged “tracer” bound to B-Raf via TR-FRET from an anti-tag Eu-labeled antibody also bound to B-Raf.
(§2) [formula] • where: • Xmax Average Uninhibited Controls • Xmin Average Background
(§3) A 4-parameter logistic model was the fit to the POC data for each compound.

[3] = tested on: LLC-PK1 or MDCKII cell monolayer; conditions: 2 h, 1 µM
P-gp (MDR1) = P-gp (MDR1) (Homo sapiens (Human), UniProt P08183); conditions: pig, LLC-PK1, 2 h, 1 µM
P-gp (MDR1), sequence (P08183 whole entry, species assumed): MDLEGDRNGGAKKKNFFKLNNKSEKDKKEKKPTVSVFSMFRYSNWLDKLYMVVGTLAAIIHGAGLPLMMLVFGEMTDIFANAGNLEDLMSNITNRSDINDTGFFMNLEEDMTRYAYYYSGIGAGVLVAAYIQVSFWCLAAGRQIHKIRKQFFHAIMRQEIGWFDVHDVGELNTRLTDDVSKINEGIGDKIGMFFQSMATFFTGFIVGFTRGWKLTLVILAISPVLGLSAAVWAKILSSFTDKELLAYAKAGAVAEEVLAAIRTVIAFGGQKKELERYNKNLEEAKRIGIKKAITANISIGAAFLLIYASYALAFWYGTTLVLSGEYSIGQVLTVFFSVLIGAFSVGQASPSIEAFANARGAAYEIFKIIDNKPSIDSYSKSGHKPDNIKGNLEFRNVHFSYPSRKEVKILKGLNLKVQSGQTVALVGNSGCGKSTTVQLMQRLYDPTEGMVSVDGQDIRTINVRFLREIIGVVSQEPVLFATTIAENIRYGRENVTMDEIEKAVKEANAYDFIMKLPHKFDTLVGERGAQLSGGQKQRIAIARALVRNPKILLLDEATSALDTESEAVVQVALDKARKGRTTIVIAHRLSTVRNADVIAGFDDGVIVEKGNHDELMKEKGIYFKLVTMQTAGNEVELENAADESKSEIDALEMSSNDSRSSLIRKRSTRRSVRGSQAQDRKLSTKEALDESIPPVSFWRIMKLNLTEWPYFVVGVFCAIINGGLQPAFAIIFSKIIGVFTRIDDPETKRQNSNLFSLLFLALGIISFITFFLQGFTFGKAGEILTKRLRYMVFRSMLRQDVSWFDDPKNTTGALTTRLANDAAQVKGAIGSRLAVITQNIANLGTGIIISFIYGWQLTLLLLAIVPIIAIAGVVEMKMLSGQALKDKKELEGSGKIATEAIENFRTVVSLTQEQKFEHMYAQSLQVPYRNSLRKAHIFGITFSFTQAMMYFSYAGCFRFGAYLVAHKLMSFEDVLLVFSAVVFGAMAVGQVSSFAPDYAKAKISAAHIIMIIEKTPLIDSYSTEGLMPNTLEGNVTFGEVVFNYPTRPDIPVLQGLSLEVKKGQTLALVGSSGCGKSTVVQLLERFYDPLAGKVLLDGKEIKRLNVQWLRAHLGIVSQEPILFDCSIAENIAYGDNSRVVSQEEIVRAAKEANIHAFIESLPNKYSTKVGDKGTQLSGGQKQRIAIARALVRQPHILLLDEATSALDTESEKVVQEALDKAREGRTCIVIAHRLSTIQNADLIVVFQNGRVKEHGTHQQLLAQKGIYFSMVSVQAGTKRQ
Experimental: Both LLC-PK1 and MDR1 transfected LLC-PK1 cells were cultured and plated according to manufacturer's recommendations with the exception that the passage media contained only 2% fetal bovine serum to extend passage time out to seven days.
(§4) Both positive and negative controls were used to assess functionality of P-gp or BCRP efflux in the assays. […] Final organic concentration in the assay was 1%. All dosing solutions contained 10 μM lucifer yellow to monitor LLC-PK1 or MDCKII cell monolayer integrity.
(§5) For the apical to basolateral determination (A to B), 75 μL of the test article in transport buffer were added to the apical side of the individual transwells and 250 μL of basolateral media, without compound or lucifer yellow, were added to each well. For the basolateral to apical determination (B to A), 250 μL of test article in transport buffer were added to each well and 75 μL transport buffer, without compound or lucifer yellow, were added to each transwell. All tests were performed in triplicate, and each compound was tested for both apical to basolateral and basolateral to apical transport. The plates were incubated for 2 hours on a Lab-Line Instruments Titer Orbital Shaker (VWR, West Chester, Pa.) at 50 rpm and 37° C. with 5% CO2. All culture plates were removed from the incubator and 50 μL of media were removed from the apical and basolateral portion of each well and added to 150 μL of 1 μM labetalol in 2:1 acetonitrile (acetonitrile): H2O, v/v.
(§6) These values were accepted when found to be below 2% for apical to basolateral and 5% basolateral to apical flux across the MDR1-transfected LLC-PK1 or BCRP-transfected MDCKII cell monolayers. The plates were sealed and the contents of each well analyzed by LC-MS/MS. The compound concentrations were determined from the ratio of the peak areas of the compound to the internal standard (labetalol) in comparison to the dosing solution.
(§7) The LC-MS/MS system was comprised of an HTS-PAL autosampler (Leap Technologies, Carrboro, N.C.), an HP1200 HPLC (Agilent, Palo Alto, Calif.), and a MDS Sciex 4000 Q Trap system (Applied Biosystems, Foster City, Calif.). […] The total run time, including re-equilibration, for a single injection was 1.2 minutes. Mass spectrometric detection of the analytes was accomplished using the ion spray positive mode.
(§8) An efflux ratio is calculated from the mean apical to basolateral (A−B) Papp data and basolateral to apical (B−A) Papp data: Efflux ratio=Papp(B−A)/Papp(A−B)

BCRP [4] = target: BCRP (Homo sapiens (Human), UniProt Q9UNQ0); conditions: dog, 2 h, 1 µM
BCRP (Homo sapiens (Human), UniProt Q9UNQ0), sequence (Q9UNQ0 whole entry, species assumed): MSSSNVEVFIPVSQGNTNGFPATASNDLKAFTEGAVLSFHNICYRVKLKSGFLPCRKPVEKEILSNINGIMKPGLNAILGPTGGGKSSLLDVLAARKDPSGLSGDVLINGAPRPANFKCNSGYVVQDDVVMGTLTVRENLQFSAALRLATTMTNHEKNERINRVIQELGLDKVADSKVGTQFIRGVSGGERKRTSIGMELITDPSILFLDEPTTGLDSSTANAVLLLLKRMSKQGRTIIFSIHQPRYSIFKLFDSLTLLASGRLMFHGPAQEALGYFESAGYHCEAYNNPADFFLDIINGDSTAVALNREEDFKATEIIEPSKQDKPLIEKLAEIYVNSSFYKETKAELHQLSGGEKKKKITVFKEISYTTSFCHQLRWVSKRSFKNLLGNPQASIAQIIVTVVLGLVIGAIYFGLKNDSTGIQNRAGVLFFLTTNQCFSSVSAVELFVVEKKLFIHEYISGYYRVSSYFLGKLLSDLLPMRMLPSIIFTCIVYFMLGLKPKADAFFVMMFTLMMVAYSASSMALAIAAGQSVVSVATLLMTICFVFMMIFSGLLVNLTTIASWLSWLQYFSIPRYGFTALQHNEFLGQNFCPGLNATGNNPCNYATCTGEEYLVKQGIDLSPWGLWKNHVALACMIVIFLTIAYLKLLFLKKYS
Experimental: BCRP transfected MDCKII cells were cultured and plated according to manufacturer's recommendations. Assay conditions included with and without the BCRP-specific inhibitor, K0143, at a concentration of 0.3 μM to ascertain the contribution of BCRP to the efflux value of the test compound.
as §4, §5, §6, §7, §8

[5] = target: N-terminally GST-tagged B-Raf(V600K) (Homo sapiens, UniProt P15056, V600K); assay: BRAF V600K enzyme assay (TR-FRET competitive displacement of fluorescent tracer); format: binding; conditions: averaged IC50; 60 min at ambient temperature; 11-point dosing, top dose 10 μM
N-terminally GST-tagged B-Raf(V600K), sequence (P15056 2-766 V600K limits assumed): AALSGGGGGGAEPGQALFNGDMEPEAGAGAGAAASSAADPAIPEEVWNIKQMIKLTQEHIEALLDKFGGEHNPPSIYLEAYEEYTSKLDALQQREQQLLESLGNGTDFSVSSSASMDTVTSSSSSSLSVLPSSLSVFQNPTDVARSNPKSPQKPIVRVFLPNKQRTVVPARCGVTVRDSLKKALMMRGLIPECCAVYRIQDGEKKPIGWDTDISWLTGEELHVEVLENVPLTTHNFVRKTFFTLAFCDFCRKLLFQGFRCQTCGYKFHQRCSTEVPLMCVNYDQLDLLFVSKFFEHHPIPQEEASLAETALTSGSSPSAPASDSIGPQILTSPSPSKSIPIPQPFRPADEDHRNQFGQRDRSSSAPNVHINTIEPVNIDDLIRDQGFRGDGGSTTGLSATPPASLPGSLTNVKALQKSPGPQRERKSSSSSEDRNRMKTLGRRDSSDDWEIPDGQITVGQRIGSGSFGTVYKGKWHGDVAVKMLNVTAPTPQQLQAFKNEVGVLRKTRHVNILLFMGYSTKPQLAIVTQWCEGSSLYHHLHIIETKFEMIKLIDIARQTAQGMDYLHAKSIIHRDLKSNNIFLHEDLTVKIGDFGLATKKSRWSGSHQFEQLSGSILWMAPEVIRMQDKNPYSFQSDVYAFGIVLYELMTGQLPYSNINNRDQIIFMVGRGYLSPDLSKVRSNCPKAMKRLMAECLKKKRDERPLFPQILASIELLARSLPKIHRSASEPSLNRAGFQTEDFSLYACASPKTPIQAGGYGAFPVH
Text: as §1, §2, §3

[6] = PK (free brain-to-free plasma ratio) (mouse); format: in vivo; conditions: unbound brain-to-unbound plasma concentration ratio; male CD-1 mice; oral gavage 10 mg/kg; sampling 2-24 hours
Experimental: PK (Free Brain-to-Free Plasma Ratio) (Mouse)
The ability of representative compounds to penetrate the BBB in mice was determined by evaluating the unbound brain-to-unbound plasma (also referred to as free brain-to-free plasma) concentration ratio in male CD-1 mice.
Brain samples were stored at −20±5° C. prior to analysis. Concentrations of test compound in mouse brain homogenate were determined by liquid chromatography tandem mass spectrometry (LC-MS/MS) following protein precipitation with acetonitrile. A 12-point calibration curve, ranging from 0.5 to 10,000 ng/mL, was prepared in duplicate. A solution of 400 μg/mL of test compound in dimethyl sulfoxide (DMSO) was serially diluted (3-fold) in 100% DMSO, and then 2.5 μL of each standard solution was added to 100 μL of naïve male CD-1 mice brain homogenate. To mimic the extraction in the standard curve, 2.5 μL of DMSO was added to all test samples. Both calibration and test brain homogenate samples were spiked with 10 μL of an IS (1 μg/mL of a structural analog). Brain homogenate was generated by adding 0.75 mL of 4:1 water:MeOH to each brain sample followed by homogenization for 1 minute with bead beater tubes a 6 m/s using an MP Fast Prep-24®. Proteins were precipitated from 100 μL of brain homogenate sample by the addition of 300 μL of acetonitrile. […] A 100 μL aliquot of each supernatant was transferred via a 550 μL Personal Pipettor (Apricot Designs, Monrovia, Calif.) to 96-well plates and diluted 1:1 with HPLC grade water. The resulting plates were sealed with aluminum for LC-MS/MS analysis.
Brain-to-plasma ratios were calculated using the concentration of compound measured in the brain divided by the concentration of compound measured in the plasma. Brain-to-plasma ratios were always generated from a single animal and time point. Free brain-to-free plasma ratios were calculated by multiplying the brain-to-plasma ratio by the in vitro brain homogenate free fraction divided by the in vitro plasma free fraction using the following equation: (B/P)*(Bfu/Pfu).

IC50 [5] [nM] | B/P ratio (free) [6] | Molecule | BCRP efflux ratio (BCRP [1]) | IC50 [2] [nM] | Permeability [3] | MDR1 efflux ratio (P-gp (MDR1)) | BCRP efflux ratio (BCRP [4])
 |  | CC(C)(C)c1nc(-c2cccc(NS(=O)(=O)c3c(F)cccc3F)c2F)c(-c2ccnc(N)n2)s1 [dabrafenib] | 21.0 |  |  |  | 
 |  | CCCS(=O)(=O)Nc1ccc(F)c(C(=O)c2c[nH]c3ncc(-c4ccc(Cl)cc4)cc23)c1F [vemurafenib] | 495 |  |  |  | 
 |  | N-(3-((3,5-dimethyl-4-oxo-3,4-dihydroquinazolin-6-yl)amino)-2-fluoro-5-methylphenyl)propane-1-sulfonamide [Example 46] |  | 148 | 30.74 *10^−6 cm/s | 1.43 | 1.48
2.4 | 0.34-0.4 | N-(3-chloro-4-((3,5-dimethyl-4-oxo-3,4-dihydroquinazolin-6-yl)oxy)-5-fluoropyridin-2-yl)propane-1-sulfonamide [Example 63] |  | 2.8 | 26.09 *10^−6 cm/s | 1.3 | 7.7
